Measured values reported in patent publication US12053459B2, “CDK2 inhibitors and methods of using the same” (Cedilla Therapeutics, Inc., priority 2021, dated 2024).

Tests used:
[1] = test system: Kuramochi cells; assay: Incucyte cell proliferation assay, Kuramochi cells labeled with mApple-H2B; format: cell-based; details: class symbols A-D
Procedure: Kuramochi cells labeled with mApple-H2B and Kuramochi RB1−/− cells labeled with NucLight green (Sartorius, 4475) were co-plated on 384-well assay-ready plates along with test compounds at varying concentrations. Plates were placed in the IncuCyte® Sartorius and scanned at 0 and 72 hours. IncuCyte® software was used to count the number of fluorescent nuclei in each well. The fold change in cell count from 0 to 72 hours in wells treated with increasing compounds concentrations (10 pts, ½ log dilution, 20 uM top concentration) was normalized to DMSO control wells. The normalized cell counts were fit with dose response curves and a GI50 was calculated.

[2] = target: T1, CDK2/Cyclin E1(14-475) (Homo sapiens, UniProt P24941); assay: Caliper LabChip EZ Reader mobility shift assay, inhibition of CDK2/Cyclin E1 activity; format: biochemical; details: class symbols A-D
Summary of the method: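 CDK2/Cyclin E1(14-475) pre-incubated 30 min with compound and ATP, then reaction started with 5-FAM-QSPKKG-CONH2; final 2.5 nM enzyme, 100 μM ATP, 1.5 μM peptide, HEPES pH 7.5. Stopped with EDTA after 100 min; substrate/product conversion by capillary electrophoresis mobility shift, IC50 from four-parameter fit.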

[3] = test system: Kuramochi cells; assay: BrdU cell proliferation assay (colorimetric ELISA), Kuramochi cells; format: cell-based; details: class symbols A-D
Summary of the method: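 Kuramochi cells (2,000/well, with Kuramochi RB^KO cells as a specificity control) were treated with a 4-point, 3-fold dilution series made from 10 mM compound stocks and left for 4 days at 37 °C. Proliferation was measured by 1 h BrdU labelling, then anti-BrdU peroxidase ELISA read at 450 nm. Signals were background-subtracted and normalized to DMSO wells.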

[4] = target: T1, CDK2/Cyclin E1(14-475); assay: HotSpot kinase inhibition assay (radiometric, Reaction Biology Corporation); format: biochemical; details: 10 μM ATP, class symbols A-D
Procedure: Inhibition of a select panel of CDK2/CCNE1 activities in the presence of compounds of the present disclosure was evaluated using the HotSpot™ assay (proprietary to Reaction Biology Corporation). In the assay, activated CDK2/Cyclin E1 catalyzes the transfer of radioactive phosphate to amino acid residues of peptide or protein substrates, which are detected radiometrically. […] Reactions contained 20 mM HEPES pH 7.5, 10 mM MgCl2, 1 mM EGTA, 2 mM DTT, 0.02% Brij35, 0.02 mg/mL BSA, 0.1 mM Na3VO4, 1% DMSO, 1.5 nM CDK2/Cyclin E1(14-475), 10 μM ATP, and 20 μM Histone H1 protein isolated from calf thymus (Sigma).
CDK2/Cyclin E1 […] and Histone H1 were mixed in reaction buffer. To this mixture, was added dose titrations of inhibitor compounds in 100% DMSO by acoustic transfer. The compound mixtures were incubated for 20 minutes, then the kinase reactions were initiated by the addition of a mixture of ATP and ^33P ATP for final concentrations of 10 μM total ATP, 20 μM Histone H1, and 1.5 nM CDK2/Cyclin E1 (14-475). The reactions were carried out for 120 minutes, then spotted on a P81 ion exchange filter paper, and extensively washed with 0.75% phosphoric acid. The resulting radioactive counts were normalized to yield % activity, plotted against compound concentration, and fit to a four-parameter equation to determine the IC50 for each compound.

CNC(=O)[C@@H](NC(=O)C1CN(C(=O)Cc2c[nH]c3cc(Cl)ccc23)CC2CN(C(=O)c3ccc(OC(C)C)c(OC)c3)CC21)[C@H](C)OCc1ccccc1 (single isomer, unassigned) [I-147]
GI50 ([1]; 72 hours): > 20 µM | IC50 [2]: > 10 µM | IC50 [3]: > 10 µM

COc1cc(C(=O)N2CC3CN(C(=O)Cc4c[nH]c5cc(Cl)ccc45)CC(C(=O)NCc4ccc(C)nn4)C3C2)ccc1OC(C)C (single isomer, unassigned) [I-261]
GI50 ([1]; 72 h): > 20 µM | IC50 [2]: > 10 µM

CNC(=O)[C@@H](NC(=O)C1CN(C(=O)Cc2c[nH]c3cc(Cl)ccc23)CC2CN(C(=O)c3ccc(OC(C)C)c(OC)c3)CC21)[C@H](C)OCc1ccccc1 (stereo partly shown) [I-106]
GI50 ([1]; 72 h): 1 to 10 µM | IC50 [2]: ≤ 0.5 µM | IC50 [3]: 0.5 to 5 µM

CNC(=O)C(NC(=O)C1CN(C(=O)Cc2c[nH]c3cc(Cl)ccc23)CC2CN(C(=O)c3ccc(OC(C)C)c(OC)c3)CC21)[C@H](C)OCc1ccccc1 (single isomer, unassigned) [I-145]
GI50 ([1]; 72 h): 1 to 10 µM | IC50 [2]: ≤ 0.5 µM | IC50 [3]: 0.5 to 5 µM

CNC(=O)[C@@H](NC(=O)C1CN(C(=O)Cc2c[nH]c3cc(Cl)ccc23)CC2CN(C(=O)c3ccc(OC(C)C)c(OC)c3)CC21)[C@H](C)OCc1ccccc1 (single isomer, unassigned) [I-148]
GI50 ([1]; 72 hours): > 20 µM | IC50 [2]: 0.5 to 5 µM | IC50 [3]: > 10 µM

COc1cc(C(=O)N2CC3CN(C(=O)Cc4c[nH]c5cc(Cl)ccc45)CC(C(=O)NCc4ccc(C)nn4)C3C2)ccc1OC(C)C (single isomer, unassigned) [I-262]
GI50 ([1]; 72 hours): > 20 µM | IC50 [2]: > 10 µM

CNC(=O)[C@@H](NC(=O)C1CN(C(=O)Cc2c[nH]c3cc(Cl)ccc23)CC2CN(C(=O)c3cc(-c4ccccc4)n[nH]3)CC21)[C@@H](C)OCC1CCCCC1 (stereo partly shown) [I-251]
IC50 [2]: > 10 µM | IC50 [4]: > 100 µM | IC50 [3]: 5 to 10 µM

CNC(=O)[C@@H](NC(=O)C1CN(C(=O)Cc2c[nH]c3cc(Cl)ccc23)CC2CN(C(=O)c3ccc(OC(C)C)c(OC)c3)CC21)[C@H](C)OCc1ccccc1 (single isomer, unassigned) [I-146]
GI50 ([1]; 72 h): 10 to 20 µM | IC50 [2]: ≤ 0.5 µM | IC50 [3]: > 10 µM

CNC(=O)[C@H](CCCc1ccccc1)NC(=O)C1CN(C(=O)Cc2c[nH]c3cc(Cl)ccc23)CC2CN(C(=O)c3cc(-c4ccccc4)on3)CC21 (stereo partly shown) [I-13]
IC50 [2]: > 10 µM | IC50 [4]: > 100 µM | IC50 [3]: 5 to 10 µM
